Assay [1] deals with T1, human mAChRM1 (Homo sapiens, UniProt P11229).
T1 construct: host or cells: CHO-K1
T1 sequence (P11229 1-460): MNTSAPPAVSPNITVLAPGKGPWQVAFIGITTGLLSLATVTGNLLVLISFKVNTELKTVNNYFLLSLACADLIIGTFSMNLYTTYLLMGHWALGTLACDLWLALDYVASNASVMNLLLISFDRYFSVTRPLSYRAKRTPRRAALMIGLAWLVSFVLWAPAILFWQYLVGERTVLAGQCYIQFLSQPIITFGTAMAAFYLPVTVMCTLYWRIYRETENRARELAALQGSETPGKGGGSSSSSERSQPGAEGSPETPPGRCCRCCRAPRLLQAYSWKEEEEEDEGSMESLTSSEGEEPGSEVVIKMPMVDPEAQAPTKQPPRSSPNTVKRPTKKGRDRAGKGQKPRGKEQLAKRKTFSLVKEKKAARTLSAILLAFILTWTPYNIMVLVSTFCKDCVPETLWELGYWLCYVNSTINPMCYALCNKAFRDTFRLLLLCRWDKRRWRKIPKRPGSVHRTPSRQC
Briefly: mAChR M1 cell-based functional assay (calcium mobilization), positive allosteric modulator activity: increase in the EC20 acetylcholine response. The note with it: for Emax: PAM mode; for EC50: increase in the EC20 acetylcholine response, read-out: PAM Activity Human M1 EC50. The method in brief:
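CHO-K1 cells stably expressing human M1, loaded with Fluo-4 AM; calcium flux recorded on FDSS at 1 Hz over 300 s following compound addition. PAM activity is the concentration-dependent increase of an EC20 acetylcholine response; EC50 and Emax from four-parameter logistic fits of 11-point, 1:3 concentration series.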

In assay [2] the target is T1, human mAChRM1. Nature of the assay: mAChR M1 cell-based functional assay (calcium mobilization), agonist activity upon compound addition, Emax relative to acetylcholine maximum. The settings on record: for Agonist Activity Human M1 EC50 / EC50: calcium mobilization upon compound addition; for Emax: relative to the maximum for acetylcholine. In outline: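 CHO-K1 cells stably expressing human M1 were loaded with Fluo-4 AM for 50 min at 37 °C. Compound was added 4 s into a 300 s FDSS read at 1 Hz, over 11-point 1:3 dilution curves. Agonism was taken as a concentration-dependent rise in calcium fluorescence ratio, with Emax expressed relative to the acetylcholine maximum from four-parameter logistic fits.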
A general note: Calcium assays in cells follow changes in intracellular calcium, usually with a dye or a luminescent sensor.

Structures are written as SMILES.

What is called Emax is the maximal effect, on the per cent scale that the assay sets. For orientation: EC50 means the concentration at which the effect is half-maximal. For the compound `CC(C)(O)c1ccc(-c2cc(F)c(CN3Cc4ncccc4C3=O)c(F)c2)cc1F` [Compound 7, 6-((3,3′,5-trifluoro-4′-(2-hydroxypropan-2-yl)-[1,1′-biphenyl]-4-yl)methyl)-6,7-dihydro-5H-pyrrolo[3,4-b]pyridin-5-one], on human mAChRM1 [1], the Emax came out at 71% and the EC50 was 2.67 µM. The “Agonist Activity Human M1 EC50” value on human mAChRM1 [2] was “inactive”.

For `CC(C)(O)c1cc(-c2cc(F)c(CN3Cc4ncccc4C3=O)c(F)c2)cc2cccnc12` [Compound 39, 6-(2,6-difluoro-4-(8-(2-hydroxypropan-2-yl)quinolin-6-yl)benzyl)-6,7-dihydro-5H-pyrrolo[3,4-b]pyridin-5-one], on human mAChRM1 [1], the maximal response (Emax) came to 72% and the EC50 turned out to be 0.472 µM. At human mAChRM1 [2], the half-maximal effective concentration (EC50) was not below 10 µM and the Emax was determined as 8%.

With `CN(C)c1cc(-c2ccc(C(C)(C)O)c3nn(C)cc23)cc(F)c1CN1Cc2cccnc2C1=O` [Compound 125, 6-(2-(dimethylamino)-6-fluoro-4-(7-(2-hydroxypropan-2-yl)-2-methyl-2H-indazol-4-yl)benzyl)-5,6-dihydro-7H-pyrrolo[3,4-b]pyridin-7-one], at human mAChRM1 [1], the Emax was 77% and the EC50 is not below 10 µM. Also, the “Agonist Activity Human M1 EC50” value on human mAChRM1 [2] was “inactive”.

For the compound `Cn1cc2c(-c3cc(F)c(CN4Cc5ncccc5C4=O)c(C(F)(F)F)c3)ccc(C(C)(C)O)c2n1` [Compound 76, 6-(2-fluoro-4-(7-(2-hydroxypropan-2-yl)-2-methyl-2H-indazol-4-yl)-6-(trifluoromethyl)benzyl)-6,7-dihydro-5H-pyrrolo[3,4-b]pyridin-5-one], on human mAChRM1 [1], the maximum response (Emax) turned out to be 80% and the EC50 is 0.439 µM. For the same compound, on human mAChRM1 [2], the “Agonist Activity Human M1 EC50” value was “inactive”.

Turning to `CC(C)(O)c1c(F)cc(-c2cc(F)c(CN3Cc4ncccc4C3=O)c(F)c2)cc1F` [Compound 47, 6-((3,3′,5,5′-tetrafluoro-4′-(2-hydroxypropan-2-yl)-[1,1′-biphenyl]-4-yl)methyl)-6,7-dihydro-5H-pyrrolo[3,4-b]pyridin-5-one], at human mAChRM1 [1], the Emax is 34% and the concentration for a half-maximal effect (EC50) amounted to 1.83 µM. In addition, the “Agonist Activity Human M1 EC50” value at human mAChRM1 [2] was “inactive”.

For `Cn1cc2c(-c3cc(F)c(CN4Cc5cccc(F)c5C4=O)c(F)c3)ccc(C3(O)COC3)c2n1` [Compound 159, 2-(2,6-difluoro-4-(7-(3-hydroxyoxetan-3-yl)-2-methyl-2H-indazol-4-yl)benzyl)-7-fluoroisoindolin-1-one], at human mAChRM1 [1], the Emax was found to be 81% and the EC50 came to 0.118 µM. Further, the “Agonist Activity Human M1 EC50” value at human mAChRM1 [2] was “inactive”.

`Cn1cc2c(-c3cc(Cl)c(CN4Cc5ncccc5C4=O)c(C4CC4)c3)ccc(C(C)(C)O)c2n1` [Compound 67, 6-(2-chloro-6-cyclopropyl-4-(7-(2-hydroxypropan-2-yl)-2-methyl-2H-indazol-4-yl)benzyl)-6,7-dihydro-5H-pyrrolo[3,4-b]pyridin-5-one]: at human mAChRM1 [1], the Emax turned out to be 62% and the EC50 was 0.147 µM. At human mAChRM1 [2], the EC50 was determined as 6.1 µM and the Emax turned out to be 32%.

Consider `Cn1cc2cc(-c3cc(F)c(CN4Cc5ncccc5C4=O)c(F)c3)cc(C(C)(C)O)c2n1` [Compound 33, 6-(2,6-difluoro-4-(7-(2-hydroxypropan-2-yl)-2-methyl-2H-indazol-5-yl)benzyl)-6,7-dihydro-5H-pyrrolo[3,4-b]pyridin-5-one], for which, at human mAChRM1 [1], the maximum response (Emax) was determined as 66% and the EC50 came to 0.297 µM. Further, on human mAChRM1 [2], the concentration giving a half-maximal response (EC50) is not below 10 µM and the Emax turned out to be 21%.

Turning to `[2H]C([2H])([2H])C(C)(O)c1ccc(-c2cc(F)c(CN3Cc4ncccc4C3=O)c(F)c2)c2cn(C)nc12` (stereo not drawn) [Compound 95, 6-(2,6-difluoro-4-(7-(2-hydroxypropan-2-yl-1,1,1-d3)-2-methyl-2H-indazol-4-yl)benzyl)-6,7-dihydro-5H-pyrrolo[3,4-b]pyridin-5-one], on human mAChRM1 [1], the Emax came out at 86% and the EC50 stood at 0.096 µM. For the same compound, on human mAChRM1 [2], the EC50 was determined as 1.86 µM and the Emax turned out to be 27%.

As for `Cn1cc2cc(-c3cc(F)c(CN4Cc5cccc(F)c5C4=O)c(Cl)c3)cc(C(C)(C)O)c2n1` [Compound 171, 2-(2-chloro-6-fluoro-4-(7-(2-hydroxypropan-2-yl)-2-methyl-2H-indazol-5-yl)benzyl)-7-fluoroisoindolin-1-one], at human mAChRM1 [1], the Emax worked out at 75% and the EC50 was not below 10 µM. For the same compound, the “Agonist Activity Human M1 EC50” value on human mAChRM1 [2] was “inactive”.

On to `CC(C)(O)c1ccc(-c2cc(F)c(CN3Cc4ncccc4C3=O)c(C3CC3)c2)cc1` [Compound 10, 6-((3-cyclopropyl-5-fluoro-4′-(2-hydroxypropan-2-yl)-[1,1′-biphenyl]-4-yl)methyl)-6,7-dihydro-5H-pyrrolo[3,4-b]pyridin-5-one], for which, on human mAChRM1 [1], the Emax is 83% and the EC50 stood at 0.813 µM. For the same compound, at human mAChRM1 [2], the “Agonist Activity Human M1 EC50” value was “inactive”.

With `[2H]C1([2H])c2ncccc2C(=O)N1Cc1c(Cl)cc(-c2ccc(C(C)(C)O)c3nn(C)cc23)cc1C1CC1` [Compound 150, 6-(2-chloro-6-cyclopropyl-4-(7-(2-hydroxypropan-2-yl)-2-methyl-2H-indazol-4-yl)benzyl)-6,7-dihydro-5H-pyrrolo[3,4-b]pyridin-5-one-7,7-d2], the maximum response (Emax) on human mAChRM1 [1] came out at 79%; on human mAChRM1 [2], 23%. Besides, the EC50 on human mAChRM1 [1] came out at 0.364 µM; on human mAChRM1 [2], 6.72 µM.

Turning to `Cn1cc2cc(-c3cc(F)c(CN4Cc5cccc(F)c5C4=O)c(F)c3)cc(C(C)(C)O)c2n1` [Compound 155, 2-(2,6-difluoro-4-(7-(2-hydroxypropan-2-yl)-2-methyl-2H-indazol-5-yl)benzyl)-7-fluoroisoindolin-1-one], at human mAChRM1 [1], the Emax was 75% and the EC50 amounted to 0.358 µM. Moreover, the “Agonist Activity Human M1 EC50” value at human mAChRM1 [2] is “inactive”.

On to `Cn1cc2c(-c3ccc(CN4Cc5cccc(F)c5C4=O)c(F)c3)ccc(C(C)(C)O)c2n1` [Compound 160, 7-fluoro-2-(2-fluoro-4-(7-(2-hydroxypropan-2-yl)-2-methyl-2H-indazol-4-yl)benzyl)isoindolin-1-one], for which, on human mAChRM1 [1], the Emax amounted to 80% and the EC50 came out at 0.296 µM. For the same compound, the “Agonist Activity Human M1 EC50” value on human mAChRM1 [2] is “inactive”.

Take `CC(C)(O)c1ccc(-c2cc(F)c(CN3Cc4ccncc4C3=O)c(F)c2)cc1` [Compound 141, 2-((3,5-difluoro-4′-(2-hydroxypropan-2-yl)-[1,1′-biphenyl]-4-yl)methyl)-1,2-dihydro-3H-pyrrolo[3,4-c]pyridin-3-one]: on human mAChRM1 [1], the maximal effect (Emax) turned out to be 79% and the EC50 stood at 1.01 µM. In addition, the “Agonist Activity Human M1 EC50” value on human mAChRM1 [2] was “inactive”.

As to `Cn1cc2c(-c3cc(F)c(CN4Cc5ncccc5C4=O)c(F)c3)ccc(C3(O)CCCC3)c2n1` [Compound 91, 6-(2,6-difluoro-4-(7-(1-hydroxycyclopentyl)-2-methyl-2H-indazol-4-yl)benzyl)-6,7-dihydro-5H-pyrrolo[3,4-b]pyridin-5-one], at human mAChRM1 [1], the Emax was determined as 72% and the EC50 is 0.254 µM. For the same compound, on human mAChRM1 [2], the concentration for a half-maximal effect (EC50) was 7.03 µM and the Emax was 15%.

As for `CC(C)(O)c1ccc(-c2cc(F)c(CN3Cc4ncccc4C3=O)c(F)c2)cn1` [Compound 6, 6-(2,6-difluoro-4-(6-(2-hydroxypropan-2-yl)pyridin-3-yl)benzyl)-6,7-dihydro-5H-pyrrolo[3,4-b]pyridin-5-one], on human mAChRM1 [1], the Emax was determined as 80% and the EC50 is not below 10 µM. Moreover, the “Agonist Activity Human M1 EC50” value on human mAChRM1 [2] is “inactive”.

In the case of `[2H]C([2H])([2H])C(O)(c1ccc(-c2cc(F)c(CN3Cc4cccc(F)c4C3=O)c(F)c2)c2cn(C)nc12)C([2H])([2H])[2H]` [Compound 156, 2-(2,6-difluoro-4-(7-(2-hydroxypropan-2-yl-1,1,1,3,3,3-d)-2-methyl-2H-indazol-4-yl)benzyl)-7-fluoroisoindolin-1-one], at human mAChRM1 [1], the Emax was found to be 83% and the EC50 was determined as 0.136 µM. Moreover, at human mAChRM1 [2], the “Agonist Activity Human M1 EC50” value is “inactive”.

Take `Cn1cc2c(-c3cc(F)c(CN4Cc5ncccc5C4=O)c(F)c3)ccc(C3(O)CCC(C#N)CC3)c2n1` (stereo not drawn) [Compound 101, 4-(4-(3,5-difluoro-4-((5-oxo-5,7-dihydro-6H-pyrrolo[3,4-b]pyridin-6-yl)methyl)phenyl)-2-methyl-2H-indazol-7-yl)-4-hydroxycyclohexane-1-carbonitrile]: on human mAChRM1 [1], the maximal effect (Emax) was found to be 86% and the EC50 was found to be 0.222 µM. Besides, the “Agonist Activity Human M1 EC50” value at human mAChRM1 [2] is “inactive”.

On to `CC(C)(O)c1ccc(-c2ccc(CN3Cc4cccnc4C3=O)c(F)c2)cc1` [Compound 127, 6-((3-fluoro-4′-(2-hydroxypropan-2-yl)-[1,1′-biphenyl]-4-yl)methyl)-5,6-dihydro-7H-pyrrolo[3,4-b]pyridin-7-one], for which, at human mAChRM1 [1], the Emax came out at 81% and the EC50 was 4.53 µM. On human mAChRM1 [2], the “Agonist Activity Human M1 EC50” value was “inactive”.
